Values after ≈ are worked out from the molar mass of the structure shown.
How the values were obtained:
[1] = Metabolic stability study in mouse liver microsomes; format: in vitro ADME; settings: 1 μM, 37° C.
Description: The above selected compounds have protected mice from infection at ED50 doses. Metabolic Stability Study: In vitro metabolic stability of the compounds was done in mouse liver microsomes prepared in house as per standard protocol. Compounds were tested at 1 μM concentration. Compounds were incubated for 15 and 60 minutes at 37° C. with 100 rpm in shaker bath. After the incubation samples were analysed by LC/MS (API-4000). Respective control (Propranalol) was included in the study.

Fab I = settings: 1 μM compound
MSSA = experiment: MIC by broth microdilution method; format: cell-based; settings: Staphylococcus aureus, MRSA / MSSA; MSSA, broth microdilution; read-out: MIC Vs MRSA (μg/ml) MSSA
MRSE = experiment: MIC by broth microdilution method; format: cell-based; settings: Staphylococcus epidermidis, MRSA / MRSE; MRSE, broth microdilution; read-out: MIC Vs MRSA (μg/ml) MRSE
MRSA = experiment: MIC by broth microdilution method; format: cell-based; settings: Staphylococcus aureus; MRSA, broth microdilution; read-out: MIC Vs MRSA (μg/ml) MRSA

## O=C1CCNc2cc(/C=C/C(=O)N3CC=C(Cc4cccs4)CC3)cnc2N1 [Compound 91, (E)-8-(3-oxo-3-(4-(thiophen-2-ylmethyl)-5,6-dihydropyridin-1(2H)-yl)prop-1-en-1-yl)-2,3-dihydro-1H-pyrido[2,3-b][1,4]diazepin-4(5H)-one]
[1]
  Percentage of compound remained after 15 min: 81.3%
  Percentage of compound remained after 60 min: 79.3%
Fab I
  FAB-I inhibition %@1 μM: 93%
MSSA
  MIC: 0.25 µg/mL (≈ 0.634 µM)
MRSE
  MIC: 0.5 µg/mL (≈ 1.27 µM)
MRSA
  MIC: 0.5 µg/mL (≈ 1.27 µM)

## CN1CC(=O)Nc2ncc(/C=C/C(=O)N3CC=C(Cc4cccs4)CC3)cc2C1 [Compound 93, (E)-4-methyl-7-(3-oxo-3-(4-(thiophen-2-ylmethyl)-5,6-dihydropyridin-1(2H)-yl)prop-1-en-1-yl)-4,5-dihydro-1H-pyrido[2,3-e][1,4]diazepin-2(3H)-one]
[1]
  Percentage of compound remained after 15 min: 16.1%
  Percentage of compound remained after 60 min: 1.1%
Fab I
  FAB-I inhibition %@1 μM: 93%
MSSA
  MIC: 0.5 µg/mL (≈ 1.22 µM)
MRSE
  MIC: 1 µg/mL (≈ 2.45 µM)
MRSA
  MIC: 0.5 µg/mL (≈ 1.22 µM)
